Series [1] in a line: salt screen, XRPD of damp, dried and 40° C./75% RH stored samples (Salt Preparation Methods 1 and 2). In kind it is physicochemical. Set-up: key to XRPD Analysis Damp/Dry: A = amorphous; Evap. = isolated via evaporation. The procedure:
(§1) Salt Preparation Method 1: Approximately 25 mg of Compound 1 (free base) was weighed out into 1.5 mL screw-cap vials and a stirrer bar was added. For solid counterions, the appropriate amount of acid (1.0 or 2.0 equiv.) was weighed into separate 1.5 mL screw-cap vials. 100 μL of the appropriate solvent system was added to both the Compound 1 and the solid counterions. Stock solutions of liquid counterions were prepared, such that 100 μL contained 1.0 or 2.0 equiv. of acid. See counterion and solvent lists in Table 60 and Table 61 respectively.
(§2) The samples were stirred at 40° C. for 5-10 min and then the acid solutions were added to Compound 1, rinsing out the transfer vial with a further 50 μL of solvent. […] Experiments were temperature cycled between 40° C. and 5° C. (1 h hold; 0.1° C./min ramp/cool) for ca. 24-68 h. Anti-solvent addition (ASA) was carried out to slurries at 5° C. then experiments were heated to 30° C. over 1 h. ASA was carried out at 30° C. or 40° C. where clear solutions or gums were observed.
(§3) Temperature cycling was then continued for ca. 16-69 h, followed by further ASA and temperature cycling if required. Material was isolated at 5° C. and analyzed damp by XRPD. All isolated material was dried under vacuum at ca. 40° C. for ca. 17-91 h then re-analyzed by XRPD. The XRPD plate was stored at 40° C./75% RH for 24-48 h and then samples re-analyzed. Solutions were stored uncapped at ambient temperature to evaporate. Any residual solids were analyzed by XRPD.
(§4) Salt Preparation Method 2: The general procedure adopted in preparing the potential salts is outlined below. A known mass of Compound 1 (free base) and a known volume of the appropriate solvent system were added to 20 mL scintillation vials. The required mol. equiv. of the appropriate counterions were added to the vials as solutions or slurries in the corresponding solvent system.
(§5) The experiments were stirred at 40° C. for ca. 1 h, and then temperature cycled between 40° C. and 5° C. with 0.1° C./min ramp and 1 h hold between each step. Anti-solvent additions and subsequent slurrying at 5° C. were employed in order to facilitate crystallization. […] The damp and dried solids were subsampled and analyzed by XRPD. Where applicable, the dried solids were stored at 40° C./75% RH for 24-48 h in order to improve the crystallinity and/or facilitate solid form conversion to the desired form.

Assay in series [2]: as above
Further details: key: A = amorphous; PC = poorly crystalline; *= predominantly; 1 = Form 1 Compound 1 benzoate; 2 = Form 2 Compound 1 benzoate; 3 = Form 3 Compound 1 benzoate. To be noted: Benzoic acid, 1 equiv. The series is classed as physicochemical. The procedure:
as §1, §2, §3, §4, §5

Assay in series [3]: as above
In kind it is physicochemical. Set-up: key: A = amorphous; Evap. = isolated via evaporation. In a few lines:
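Free base (~25 mg) was stirred at 40 °C with 1.0 or 2.0 equiv. acid in the test solvent, then temperature-cycled 40–5 °C (0.1 °C/min, 1 h holds) with anti-solvent addition as needed. Solids were isolated at 5 °C and run by XRPD damp, after vacuum drying at ~40 °C for ~17–91 h, and after 24–48 h at 40 °C/75% RH.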

In another series the target is T1, ENT1 (Homo sapiens, UniProt Q99808).
T1 construct: endogenous in cells; host or cells: CD19-positive cells (B cells) in whole blood from healthy donors
T1 sequence (Q99808 1-456): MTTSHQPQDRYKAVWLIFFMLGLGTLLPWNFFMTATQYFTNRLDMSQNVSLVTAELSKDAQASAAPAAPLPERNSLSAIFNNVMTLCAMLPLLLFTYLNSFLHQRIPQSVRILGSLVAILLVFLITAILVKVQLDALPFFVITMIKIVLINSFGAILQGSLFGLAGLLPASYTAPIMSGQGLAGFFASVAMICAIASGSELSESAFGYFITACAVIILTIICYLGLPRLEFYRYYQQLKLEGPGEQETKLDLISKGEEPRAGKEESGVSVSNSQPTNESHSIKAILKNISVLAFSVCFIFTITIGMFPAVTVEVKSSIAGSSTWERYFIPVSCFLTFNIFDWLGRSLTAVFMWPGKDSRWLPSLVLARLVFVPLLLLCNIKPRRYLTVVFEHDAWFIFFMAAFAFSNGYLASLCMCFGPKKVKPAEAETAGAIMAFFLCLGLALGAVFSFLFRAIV
The experiment in a line: ENT1 activity: intracellular uptake of 5-Ethynyl-Uridine (5EU) in whole blood, CD19 positive cells, flow cytometry. The series is classed as cell-based. To be noted: 5EU 60 min at 37° C. The procedure:
Example 20-ENT1 Activity of Crystalline Form 2 Compound 1 di(hydrogen sulfate) trihydrate compared to Compound 1 (free base)-Initial and after Six-Month Storage: (1) Initial time: Whole blood from 8 healthy donors was incubated with 5-Ethynyl-Uridine (5EU, CAS #: 69075-42-9, Jena Bioscience) for 60 min at 37° C., in the absence or presence of freshly suspended 1 μM Compound 1 (free base) or 1 μM Form 2 Compound 1 di(hydrogen sulfate) trihydrate. Intracellular uptake of 5EU through ENT1 transporters was assessed by standard flow cytometry and ENT1 activity was determined.
In FIG. 101, the data are expressed as % of ENT1 activity in untreated CD19 cells, arbitrary set at 100%, and are the means±SD of three independent experiments. Statistical analysis was performed using one-way analysis of variance (ANOVA) followed by Tukey's post hoc analysis with Prism 10.1.2 software (GraphPad Software). *: p<0.0001 vs. untreated B cells; ns: non-significant.
(2) Six months: Compound stability was evaluated on suspended solutions of Compound 1 (free base) or Form 2 Compound 1 di(hydrogen sulfate) trihydrate that were stored at −20° C. for 6 months. On the day of the experiment, whole blood from 3 healthy donors was incubated with 5-Ethynyl-Uridine (5EU, CAS #: 69075-42-9, Jena Bioscience) for 60 min at 37° C., in the absence or presence of either 1 μM Compound 1 (free base) or 1 μM Form 2 Compound 1 di(hydrogen sulfate) trihydrate of 6-month-old solutions. Intracellular uptake of 5EU through ENT1 transporters was assessed by standard flow cytometry and ENT1 activity was determined.
In FIG. 102, the data are expressed as % of ENT1 activity in untreated CD19 cells, arbitrary set at 100%, and are the means±SD. Statistical analysis was performed using two-way analysis of variance (ANOVA) with Prism 10.1.2 software (GraphPad Software). *: p<0.05 vs. untreated B cells; **: p<0.01 vs. untreated B cells; ns: non-significant.

Series [4] can be described thus: salt screen, XRPD of damp, dried and 40° C./75% RH stored samples (Salt Preparation Methods 1 and 2). The series is classed as physicochemical. Further details: key: A = amorphous; 1 = Form 1 Compound 1 hydrogen chloride; PC = poorly crystalline. To be noted: Hydrochloric acid, 2 equiv.; Ethanol*; AS Heptane. The method, then:
as §1, §2, §3, §4, §5

The nature of series [5]: hydration mapping studies (slurries at different water activities, Example 17). The series is classed as physicochemical. Further details: key to XRPD, hydration studies - dried samples: A: amorphous; Crystalline Form 10 mono(hydrogen sulfate). The method, then: Example 17—Hydration Mapping Studies-Crystalline Form 2 Compound 1 di(hydrogen sulfate) trihydrate, Crystalline Form 3 Compound 1 di(hydrogen sulfate), and Blend: The effects of different water activities on crystalline Form 2 Compound 1 di(hydrogen sulfate) trihydrate, crystalline Form 3 Compound 1 di(hydrogen sulfate) and a blend of the two were investigated. The “blend” was prepared by mixing crystalline Form 2 Compound 1 di(hydrogen sulfate) trihydrate and crystalline Form 3 Compound 1 di(hydrogen sulfate) in a 1:1 ratio. To the vials containing the required solid material, the appropriate solvent system was added to form slurries. The slurry samples were stirred at the required temperatures during and after the solvent addition. Where dissolution was observed post-solvent addition, additional solid was added to re-saturate the sample. After stirring at the required temperature for 48 hours, the residual solids left in the vials were analyzed by XRPD to assess the solid forms. The analyzed samples were then dried on the XRPD plate under reduced pressure at 40° C. for 24 hr. The dried samples were analyzed by XRPD.

The mark [6] stands for this setting: Benzoic acid, 1 equiv., Ethanol, AS Heptane.
[7] abbreviates: Benzoic acid, 1 equiv., MEK, AS Heptane.
The mark [8] stands for this setting: Benzoic acid, 1 equiv., THF, AS Heptane.
The mark [9] stands for this setting: Hydrochloric acid, 2 equiv., Acetonitrile, AS tBME.
[10] abbreviates: Hydrochloric acid, 2 equiv., Ethyl acetate, AS Heptane.
The mark [11] stands for this setting: Hydrochloric acid, 2 equiv., IPA:H2O (75:25% v/v), AS tBME.
Setting [12] is: Hydrochloric acid, 2 equiv., MEK, AS Heptane.
[13] abbreviates: Hydrochloric acid, 2 equiv., THF, AS Heptane.

Marks after values point to notes of the source that are not given here.

For `O=C(O)c1ccccc1` [Benzoic acid, 1 equiv.], the “XRPD Analysis Damp/Dry” value in series [1] (Benzoic acid, 1 equiv., Acetonitrile, AS BME, (evap.)) was “A (evap.)”. Besides, the “XRPD Analysis 40° C. 75% RH” value in series [1] (setting [6]) is 2 + 3; in series [1] (Benzoic acid, 1 equiv., IPA:H2O (75:25% v/v), AS tBME), 2 + 3; in series [1] (setting [7]), 1 + 3; in series [2] (Ethyl acetate, AS Heptane), 1; in series [2] (THF, AS Heptane) it was 3. Moreover, the “XRPD Analysis Damp” value was 2* in series [1] (setting [6]); 1* in series [1] (setting [7]); 1 + 2 in series [1] (setting [8]); 1 in series [2] (Ethyl acetate, AS Heptane); 2 in series [2] (IPA:H2O (75:25% v/v), AS tBME). The “XRPD Analysis Dry” value is recorded as 1, PC in series [1] (setting [7]); 1 in series [2] (Ethyl acetate, AS Heptane); 2 in series [2] (IPA:H2O (75:25% v/v), AS tBME); “A” in series [3] (setting [6]); “A” in series [3] (setting [8]).

For the molecule `COc1cc(C(=O)O[C@@H]2CCCOc3cc(cc(OC)c3OC)C(=O)NCCCN3CCCN(CC2)CC3)cc(OC)c1OC` [Compound 1, (16R)-9,10-dimethoxy-6-oxo-12-oxa-1,5,19-triazatricyclo[17.3.2.1^7,11]pentacosa-7(25), 8,10-trien-16-yl 3,4,5-trimethoxybenzoate], the “decrease of ENT1 activity compared to untreated CD19 positive cells” value on ENT1 (1 μM of solutions stored at −20° C. for 6 months, whole blood from 3 healthy donors) is “No significant effect”; at ENT1 (1 μM, freshly suspended, whole blood from 8 healthy donors), 49.8%.

Turning to `Cl` [Hydrochloric acid, 2 equiv.], the “XRPD Analysis Damp” value in series [4] is on record as 1; in series [3] (setting [9]), “A”; in series [3] (setting [10]) it was “A”; in series [3] (setting [11]) it was “A”; in series [3] (setting [12]) it was “A”; in series [3] (setting [13]) it was “A”. The “XRPD Analysis Dry” value in series [4] is recorded as 1; in series [3] (setting [9]) it was “A”; in series [3] (setting [10]), “A”; in series [3] (setting [11]), “A”; in series [3] (setting [12]), “A”; in series [3] (setting [13]), “A”. The “XRPD Analysis 40° C. 75% RH” value in series [1] (Hydrochloric acid, 2 equiv., Ethanol*, AS Heptane) is listed as 1 (PC); in series [3] (setting [9]), “A”; in series [3] (setting [10]) it was “A”; in series [3] (setting [11]), “A”; in series [3] (setting [12]), “A”; in series [3] (setting [13]), “A”.

For `COc1cc(C(=O)O[C@@H]2CCCOc3cc(cc(OC)c3OC)C(=O)NCCCN3CCCN(CC2)CC3)cc(OC)c1OC.O=S(=O)(O)O.O=S(=O)(O)O` [blended material], the “XRPD, hydration studies - dried samples” value in series [5] (50° C., Acetonitrile:Water, aw 0.9, dried 40° C. reduced pressure 24 hr) is “M10”. Besides, the “solid form by XRPD after slurrying” value in series [5] (acetonitrile:water solvent systems with aw≤0.5, 48 hours) is “some crystalline Form 3 Compound 1 di(hydrogen sulfate) was retained”; in series [5] (acetonitrile:water systems with aw>0.5, 48 hours), “Crystalline Form 2 Compound 1 di(hydrogen sulfate) trihydrate was observed”; in series [5] (all the 2-propanol:water solvent systems, 48 hours) it was “Crystalline Form 2 Compound 1 di(hydrogen sulfate) trihydrate was also observed”.

For the origin of these results see patent US20240327415A1, “Multicomponent Complexes, Including Salts, Crystalline Forms, and Hydrates and Solvates of ENT1 Inhibitors” (iTeos Belgium SA, priority 2023, published 2024).
